Assays:
[1] = tested on: DREADDs (hM3D(Gq)) expressing VTA dopaminergic neurons; assay: C-fos staining of VTA neurons after CNO injection; format: in vivo, mice; settings: CNO 2.5 mg/kg, 90 min after injection
Description: Mice were anesthetized using a ketamine/xylazine mixture (ketamine 80 mg/kg; xylazine 15-20 mg/kg) diluted in sterile saline solution (NaCl 0.9%), before being fixed in the stereotactic frame (Stoelting, IL, US). The AAV8 virus, purchased from the vector core at the University of North Carolina, was used to induce Cre-dependent DREADD expression (AAV8-hSyn-DIO-hM3D(Gq)-mCherry), by injection of 0.7 μl into the right VTA region (anterior-posterior −3.2 mm; media-lateral 0.48 mm; dorsal-ventral 4.7 mm (mouse coordinates)). […] 30 days post surgery passed in order to assure the expression of DREADDs. […]
Validation of the virus injection site and evaluation of the DREADDs expression were performed by immunohistochemistry. […] The tissues were stained for TH with mouse anti-TH (1:200; Millipore) and the proportion of the DREADDs expressing cells (mCherry+) out of the total TH+ in the VTA was evaluated (1800 cells). […] The proportion of the c-fos+ cell nuclei from the total number of DREADDs-expressing cells was calculated. […] The quantification of double-positive cells was performed using Imaris Software.
Efficiency of the viral infection in the dopaminergic (TH+) VTA neurons was 58±4% (FIG. 6B). […] Neuronal activation was determined by C-fos staining, an immediate early activation marker. […]

IL-4 and IL-1β = assay: Serum cytokine levels (RayBio antibody array, ELISA); format: in vivo, mice; settings: 24 h after CNO; VTA-activated vs control
Description: VTA-activated and control mice were treated with CNO. Twenty four hours later, they were anaesthetized with ketamine/xylazine and their blood was collected by cardiac puncture. The blood was allowed to clot at room temperature for at least 30 minutes. Serum was collected by centrifuging the sample at 400 g for 10 min. The serum samples pooled from each experimental group (VTA-activated group and control group) were analyzed for cytokine and chemokine levels using the RayBio custom G-Series mouse cytokine antibody array kit (RayBiotech; Norcross, GA) according to manufacturer's instructions. The panel included: CD30 ligand, Eotaxin-1, Eotaxin-2, IFN-γ, IL-1α, IL-1β, IL-2, IL-3, IL-4, IL-6, IL-9, IL-10, IL-12 p40/p70, IL-12 p70, IL-13, IL-17A, MIP-1α, MIP-1γ, RANTES and TNFα. Murine IL-4 and IL-1β standard ELISA kits (PeproTech; Rocky Hill, NJ) were used as a quantitative validation of the IL-4 and IL-1β levels measured with the antibody array kit.

E. coli = assay: In-vitro E. coli killing assay with spleen monocytes/macrophages; format: cell-based, mice; settings: monocytes/macrophages from spleens 24 h after CNO; VTA-activated vs control; intact SNS
Description: To evaluate the anti-bacterial efficiency of the spleen monocytes, an in-vitro killing assay was performed. Splenocytes from VTA-activated and control mice were extracted 24 hour after IP injection of CNO. Splenocytes underwent a monocyte enrichment negative selection procedure using the EasySep mouse monocyte enrichment kit (Stem-Cells Technologies, Vancouver, Canada). Enriched monocytes co-cultured with E. coli bacteria at a 12:1 ratio, in RPMI medium containing 10% foetal bovine serum, and incubated at 37° C. for 4 h. Monocytes were then lysed by adding 0.1% Triton X-100 (Sigma-Aldrich, US), and the lysates were diluted ×1000 in PBS. The diluted media were plated onto agar petri dishes, which were then incubated overnight at 37° C. Twelve hours later, the number of remaining bacteria colonies was counted.
To test for functional changes in immune activity following VTA activation, monocytes/macrophages were assayed (the most profound changes in the CyTOF screen). Due to the increase in CD206 levels on these cells, their phagocytic capacity was examined. Cd11b+, Ly6G-cells were isolated from the spleens of both VTA-activated and control mice 24 h following CNO injection. Cells were cultured with E. coli for four hours and then lysed.
The remaining media was plated on agar plates and counted the remaining bacteria colonies. […]

Question: With `C[N+]1([O-])CCN(C2=Nc3cc(Cl)ccc3Nc3ccccc32)CC1` [CNO, clozapine-N-oxide] as the compound, how does the “C-fos expression in DREADDs-infected cells” value ([1]; VTA-activated (hM3D(Gq)) mice) read?
Answer: 42±0.5%

Question: And the “C-fos expression in virus infected cells” value ([1]; control mice (sham mCherry virus without DREADDs))?
Answer: 3±1%

Question: What about the “serum IL-1β level” value (IL-4 and IL-1β) of the same compound?
Answer: significantly reduced

Question: What about the “serum IL-4 level” value (IL-4 and IL-1β) of the same compound?
Answer: significantly reduced

Question: And the “number of remaining E. coli colonies” value (E. coli)?
Answer: significant decrease

Reference: patent US12201628B2, “Neuronal modulation” (priority 2013, dated 2025)
